One block for each molecule: values may come before it.
Columns and labels:
[1] = biological target: Thymidine kinase 2, mitochondrial (rat); test: Competitive inhibition against rat Mitochondrial thymidine kinase
[2] = biological target: Thymidine kinase 2, mitochondrial (rat); test: Non-competitive inhibition against rat mitochondrial thymidine kinase
[3] = biological target: Thymidine kinase 2, mitochondrial (rat); test: Noncompetitive inhibition against rat mitochondrial thymidine kinase
[4] = biological target: Thymidine kinase 2, mitochondrial (rat); test: Competitive inhibition against rat Mitochondrial thymidine kinase; remark: listed apart in the source

SMILES: CCO[C@H]1C[C@H](n2cc(C)c(=O)[nH]c2=O)O[C@@H]1CO [1-(4-Ethoxy-5-hydroxymethyl-tetrahydro-furan-2-yl)-5-methyl-1H-pyrimidine-2,4-dione]
- Ki [1]: 56 µM

SMILES: C/C=C/c1cn([C@H]2C[C@H](O)[C@@H](CO)O2)c(=O)[nH]c1=O [1-(4-Hydroxy-5-hydroxymethyl-tetrahydro-furan-2-yl)-5-propenyl-1H-pyrimidine-2,4-dione(BVDU)]
- Ki [2]: 510 µM

SMILES: Nc1nc(=O)n([C@H]2C[C@H](O)[C@@H](CO)O2)cc1I [4-Amino-1-(4-hydroxy-5-hydroxymethyl-tetrahydro-furan-2-yl)-5-iodo-1H-pyrimidin-2-one]
- Ki [3]: 3500 µM

Results, then the molecule that gave them:

- Ki [4]: 1300 µM
SMILES: Cc1cn([C@H]2C[C@H](O)[C@@H](CO)O2)c(=O)nc1N [4-Amino-1-(4-hydroxy-5-hydroxymethyl-tetrahydro-furan-2-yl)-5-methyl-1H-pyrimidin-2-one]

- Ki [2]: 8500 µM
SMILES: Cc1cn(C2CC(O)C(CSCCCC(=O)O)O2)c(=O)[nH]c1=O (stereo not given) [4-[3-Hydroxy-5-(5-methyl-2,4-dioxo-3,4-dihydro-2H-pyrimidin-1-yl)-tetrahydro-furan-2-ylmethylsulfanyl]-butyric acid]

Reference: BindingDB's records for doi:10.1021/jm00348a007 (1982)
